Laboratory results reported in PubChem BioAssay (NCI).
Values joined by “and” are separate entries in the source; they are usually repeats but may differ in a detail not shown here. Equal values may be shown once.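 Test compounds were applied to cells in 96-well plates for 48 hours at 5 doses. GI50 marks 50% less growth. TGI: concentration producing complete growth inhibition.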

Key:
Test in all cases: NCI tumour cell line growth inhibition, 48 h
[1] = system: MDA-N
[2] = system: XF 498 CNS
[3] = system: DLD-1 colon
[4] = system: LXFL 529 NSCLC
[5] = system: M19-MEL melanoma
[6] = system: HOP-18 NSCLC
[7] = system: SNB-78 CNS
[8] = system: DMS 273 small cell lung
[9] = system: RXF-631 renal
[10] = system: P388/ADR leukemia
[11] = system: P388 leukemia

SMILES | TGI [1] | TGI [2] | TGI [3] [µM] | TGI [4] [µM] | TGI [5] [µM] | TGI [6] | TGI [7] | TGI [8] [µM] | TGI [9] | other results
CC1=CC[C@@H]2[C@@H](CC[C@@]2(C)O)C(C)(C)[C@H]1CC[C@@H]1[C@@]2(C)CCC(=O)C(C)(C)O[C@@H]2CC[C@]1(C)O | 57 µM | – | – | – | – | – | – | – | – | –
Cc1cccc(C)c1NC(=O)CCC(=O)NNC(=O)c1cc(O)c2ccccc2c1 | – | > 100 µM | > 100 | > 100 | > 100 | > 100 µM | – | – | – | –
Cc1c(/C=C2\CC/C(=C\c3[nH]c(C(=O)OC(C)(C)C)c(C)c3C)C2=O)[nH]c(C(=O)OC(C)(C)C)c1C | – | > 100 µM | > 100 | > 100 | > 100 | > 100 µM | > 100 µM | > 100 | – | –
O=C(/C=C/c1ccc(OCCCCCCCCCCOc2ccc(/C=C/C(=O)c3ccc(Cl)cc3)cc2)cc1)c1ccc(Cl)cc1 | – | – | > 100 | – | – | > 100 µM | > 100 µM | > 100 | > 100 µM | –
COC1/C=C/O[C@@]2(C)Oc3c(C)c(O)c4c(O)c(cc(O)c4c3C2=O)NC(=O)/C(C)=C\C=C\[C@H](C)C(O)[C@@H](C)[C@@H](O)[C@@H](C)[C@H](OC(C)=O)[C@@H]1C (stereo partly specified) | 39.9 µM and 27.8 µM | 29.3 µM | 30.4 | – | 26.1 | 38.8 µM | 95 µM | 32.7 | – | GI50 [1]: 19.2 µM; TGI [10]: 59 µM; TGI [11]: 31.2 µM
CN(C)c1c(Cl)c(=O)oc2c1ccc1nc(-c3ccccc3)sc12 | > 100 µM | – | – | – | – | – | – | – | – | –
CCCCN(CC)C(=O)C(=O)C1C(=O)Nc2ccccc2S1=O (stereo unspecified) | – | – | > 100 | > 100 | > 100 | > 100 µM | > 100 µM | > 100 | – | –
COC(=O)OCC1OC(N2C(=O)NC(=O)C(I)C2N=[N+]=[N-])CC1OC(=O)OC (stereo unspecified) | – | > 100 µM | > 100 | > 100 | > 100 | – | > 100 µM | > 100 | > 100 µM | –
Cc1c(Cl)cccc1NC(=O)CC1Sc2ccccc2NC1=O (stereo unspecified) | 8.28 µM | 68.9 µM and 50.2 µM | > 100 | > 100 | > 100 | 32.7 µM and 31.5 µM | 99 µM and > 100 µM | > 100 | > 100 µM and 57.5 µM | GI50 [9]: 44.5 µM and 21 µM; GI50 [8]: 10.6 µM and 26 µM
N#C/C(=C\c1ccc(CP(=O)(O)O)cc1)C(N)=O | – | > 100 µM | > 100 | > 100 | > 100 | > 100 µM | – | > 100 | – | –
COc1cc2c(cc1O)[C@H](C)C(c1ccc(Cl)cc1)O2 (stereo partly specified) | – | 29.4 µM | 79.6 | 34.7 | 33 | > 100 µM | > 100 µM | 34.5 | 50.5 µM | –
COc1ccccc1-c1cc2c3c(nc4ccccc42)C(=O)c2cccnc2-c3n1 | 28.5 µM | – | – | – | – | – | – | – | – | GI50 [1]: 14.9 µM
OCC(O)CC[CH2][Sn]([c]1ccccc1)([c]1ccccc1)[c]1ccccc1 (stereo unspecified) | – | 35.9 µM | 32 | 24.9 | 31.1 | 39.7 µM | 41.3 µM | 29.6 | 28.7 µM | GI50 [2]: 19.5 µM; GI50 [7]: 19.6 µM; GI50 [3]: 16.5 µM; GI50 [4]: 12.3 µM; GI50 [5]: 17.1 µM; GI50 [6]: 24.9 µM; GI50 [9]: 13.6 µM; GI50 [8]: 14.3 µM
O=c1cc2n(c(=O)[nH]1)C1OC(C(O)C1O)[C@@H]2CCO (stereo partly specified) | – | – | > 100 | > 100 | > 100 | – | > 100 µM | > 100 | – | –
O=c1/c(=C/c2cccc3ccccc23)sc2nc3ccccc3n12 | – | – | > 100 | > 100 | > 100 | > 100 µM | > 100 µM | > 100 | > 100 µM | –
Nc1nc2ncn(CCO)c2c(=O)[nH]1 | – | > 100 µM | > 100 | > 100 | > 100 | > 100 µM | > 100 µM | > 100 | – | –
CC(C)C1CN1CC(O)Cn1ccnc1[N+](=O)[O-] (stereo unspecified) | > 100 µM | – | – | – | – | – | – | – | – | –
CS(=O)(=O)C1S(=O)(=O)OCCOS1(=O)=O | – | > 100 µM | > 100 | > 100 | > 100 | > 100 µM | > 100 µM | > 100 | > 100 µM | –
COC(=O)N1[C@H]2Cc3c(OC)c(C)c(OC)c(OC)c3[C@@H]1/C(=C\c1cc(OC)c(OC)c(C)c1OC)N(Cc1ccccc1)C2=O | – | – | > 100 | > 100 | 60 | > 100 µM | – | > 100 | – | –
CS(=O)(=O)NNS(=O)(=O)c1ccc(Br)cc1 | – | > 100 µM | > 100 | > 100 | > 100 | > 100 µM | > 100 µM | > 100 | – | –
CC1OCC2OC(C)OC(C3C4=C(CC(C)(C)CC4=O)OC4=C3C(=O)CC(C)(C)C4)C2O1 (stereo unspecified) | > 100 µM | – | – | – | – | – | – | – | – | –
COc1ccc(CC(=O)c2cc(OC)c(OC)cc2C)cc1OC | – | > 100 µM | > 100 | > 100 | > 100 | – | > 100 µM | – | – | –

SMILES | TGI [1] | TGI [2] | TGI [3] [µM] | TGI [4] [µM] | TGI [5] [µM] | TGI [6] | TGI [7] | TGI [8] [µM] | TGI [9] | other results
C=C1C(=O)O[C@@H]2C[C@]3(C)[C@@H](C[C@H]12)[C@](C)(O)CC[C@@H]3O | – | > 100 µM | > 100 | > 100 | > 100 | – | > 100 µM | > 100 | > 100 µM | –
COc1ccc(-c2cc(C(=O)Nc3cccc(C(F)(F)F)c3)[nH]c(=S)n2)cc1 | – | > 100 µM | > 100 | > 100 | > 100 | > 100 µM | > 100 µM | > 100 | – | –
COc1cc(OC)c(-c2cc(=O)c3c(OC)c(OC)c(OC)c(OC)c3o2)cc1OC | > 100 µM | – | – | – | – | – | – | – | – | –
Cc1c(Cl)ccc2c1NC(=O)C2(O)CC(=O)c1ccc(Cl)cc1Cl (stereo unspecified) | > 50 µM | > 50 µM | – | > 50 | > 50 | – | > 50 µM | > 50 | > 50 µM | –
O=C1CCC2(c3ccc(F)cc3)Nc3ccccc3N12 (stereo unspecified) | – | > 100 µM | > 100 | > 100 | > 100 | – | > 100 µM | – | > 100 µM | –
COC(=O)C(=O)C(C(=O)C(=O)Nc1ccccc1C(=O)OC)c1nc2ccc(C(=O)c3ccccc3)cc2[nH]c1=O (stereo unspecified) | > 100 µM | – | – | – | – | – | – | – | – | –
O=C(Cc1ccccc1)Oc1ccc2c(-c3ccccc3)c(C(=O)Nc3ccc(Cl)cc3)c(=O)oc2c1 | – | > 100 µM | > 100 | > 100 | > 100 | – | > 100 µM | > 100 | – | –
O=CC1=CCCC2(C1)OCCO2 | – | > 100 µM | > 100 | > 100 | > 100 | – | > 100 µM | > 100 | > 100 µM | –
COc1ccc(OC)c(/C=C/[N+](=O)[O-])c1 | 25.3 µM | 7.02 µM | 8.65 | 4.83 | 5.96 | 3.85 µM | 58.8 µM | 6.99 | 10.3 µM | –
COC(=O)/C(=C/c1ccc(OC)cc1)C(C(=O)O)=C(C)C | – | – | > 100 | > 100 | > 100 | > 100 µM | > 100 µM | > 100 | – | –
CN(C)CCNC(=O)c1ccc2ccc3cccnc3c2n1 | – | – | > 84.4 | > 100 | – | > 100 µM | > 34.8 µM | 22.6 | – | –
CCCCOC1CC2(c3ccc(OC)cc3)C(=O)c3ccccc3N2O1 (stereo unspecified) | – | > 10 µM | – | – | > 10 | – | > 10 µM | > 10 | > 10 µM | –
Cc1oc2ccccc2c(=O)c1Cn1nnc2ccccc21 | > 100 µM | – | – | – | – | – | – | – | – | –
O=C(NC1CCCCC1)c1c(O)[nH]c(=S)[nH]c1=O | – | – | > 100 | > 100 | > 100 | > 100 µM | > 100 µM | – | > 100 µM | –
CC(C)(C)C1CC[C@H]2c3c([nH]c4ccc(Br)cc34)[C@H]3C(=O)N(c4ccccc4)C(=O)[C@H]3[C@H]2C1 (stereo partly specified) | – | 38.2 µM | > 100 | 31.3 | 49.8 | > 100 µM | 33.4 µM | 22.4 | 19.5 µM | –
[Cu+2].[Cu+2].[O-]c1ccccc1C=Nc1ccccc1[O-].[O-]c1ccccc1C=Nc1ccccc1[O-] | – | 7.16 µM | 16.6 | 9.48 | 3.69 | 16.6 µM | 36.4 µM | 13.6 | – | GI50 [2]: 2.67 µM; GI50 [7]: 13.5 µM; GI50 [3]: 3.95 µM; GI50 [4]: 3.02 µM; GI50 [5]: 1.86 µM; GI50 [6]: 2.99 µM; GI50 [8]: 2.54 µM
O=C(Cn1ccnc1[N+](=O)[O-])N(CCO)CCO | > 250 µM | > 58 µM | > 1250 | – | > 1250 | > 1250 µM | > 1250 µM | > 1250 | – | TGI [10]: > 1250 µM; TGI [11]: > 1250 µM
COc1ccc(CNc2cc(OC)cc(OC)c2)cc1 | – | > 100 µM | > 100 | > 100 | > 100 | > 100 µM | 87.7 µM and 86.6 µM | > 100 | – | GI50 [3]: 97.7 µM and 42.6 µM; GI50 [6]: > 100 µM; GI50 [8]: > 100 µM and 42.3 µM
O=C(NO)c1ccc(C(=O)NO)cc1 | > 100 µM | – | – | – | – | – | – | – | – | –
C=CCN1C(=O)CS/C1=N\NC(=O)c1c(C)nc2sccn12 | – | > 100 µM | > 100 | > 100 | > 100 | > 100 µM | – | > 100 | > 100 µM | –
COc1cc2c(cc1OC)C13CCN4CC5=CCOC(CC(=O)O)C(C5CC41)C3N2 (stereo unspecified) | > 100 µM | – | – | – | – | – | – | – | – | –
O=S(=O)(c1cccc(C(F)(F)F)c1)N1c2ccccc2-n2cccc2C1c1cccnc1 (stereo unspecified) | > 100 µM | – | – | – | – | – | – | – | – | –
